In publication PMC11823594, “Durlobactam in combination with β-lactams to combat Mycobacterium abscessus” (Antimicrobial Agents and Chemotherapy, 2024):
Read-outs that look alike come from different tables or passages of the source.

Columns and labels:
LDT3 = LDT3 (Mycobacterium abscessus, UniProt B1MHQ4); assay: Mass spectrometry of covalent adduct formation; assay type: binding; conditions: protein:drug 1:20, 2 h; mass accuracy ±5 Da; (−) = no change
Protocol: (§1) Truncated sequences of LDT1-5, DDC, PBP B, and PBP-lipo (Δ1–41) were generated by Celtek Biosciences and cloned into the pET28(a) + vector with a tobacco etch virus (TEV) protease cleavage site before the start codon. Clones were transformed into Escherichia coli BL21 (DE3) and grown to an OD600 of 0.6–0.8. Protein expression was induced with 0.25 mM isopropyl β-d-1-thiogalactopyranoside (IPTG) and incubated for 18 h at 18°C. Cell pellets were collected and stored at −20°C overnight, then resuspended in a buffer containing 50 mM Tris (pH 8.0), 400 mM sodium chloride, and 1 mM Tris (2-carboxyethyl) phosphine hydrochloride (TCEP), followed by sonication and centrifugation. The supernatant was purified using a His Prep FF 16/10 column (GE Healthcare) and eluted with 500 mM imidazole. Eluted protein was dialyzed overnight at 4°C in a buffer with 50 mM Tris (pH 8.0), 150 mM sodium chloride, and 0.5 mM TCEP in the presence of His-tagged TEV protease. To remove the His tag, the mixture was passed over the His Prep FF 16/10 column again.
(§2) The purified proteins listed above were incubated at room temperature with β-lactams or BLIs at a molar ratio of 1:20 for 2 h. The reactions were then quenched with acetonitrile and diluted to 1 mL with 0.1% formic acid in water. Samples were analyzed using a quadrupole time-of-flight (Q-TOF) Waters Synapt-G2-Si electrospray ionization mass spectrometer (ESI-MS) and a Waters Acquity H class ultra-performance liquid chromatography (UPLC) system, equipped with a BEH C18 1.7 µm column (2.1 × 50 mm). The MS was tuned with the following settings: capillary voltage set at 3 kV, sampling cone at 35 V, source offset at 35, source temperature of 100°C, desolvation temperature of 500°C, cone gas flow rate at 100 L/h, desolvation gas flow rate at 800 L/h, and nebulizer set at 6.0. The mobile phases consisted of 0.1% formic acid in water and 0.1% formic acid in 100% acetonitrile, with gradient elution from 10% to 90% of […] over 11 min. The system’s mass accuracy was ±5 Da.

PBP-lipo [1] = molecular target: T1, PBP-lipo (Mycobacteroides abscessus, UniProt B1MDC3); assay: Bocillin-FL binding assay; conditions: 2 h incubation, 1:10 molar ratio
T1 construct: made in house; host or cells: Escherichia coli BL21 (DE3)
T1 sequence (B1MDC3 entry or part of it): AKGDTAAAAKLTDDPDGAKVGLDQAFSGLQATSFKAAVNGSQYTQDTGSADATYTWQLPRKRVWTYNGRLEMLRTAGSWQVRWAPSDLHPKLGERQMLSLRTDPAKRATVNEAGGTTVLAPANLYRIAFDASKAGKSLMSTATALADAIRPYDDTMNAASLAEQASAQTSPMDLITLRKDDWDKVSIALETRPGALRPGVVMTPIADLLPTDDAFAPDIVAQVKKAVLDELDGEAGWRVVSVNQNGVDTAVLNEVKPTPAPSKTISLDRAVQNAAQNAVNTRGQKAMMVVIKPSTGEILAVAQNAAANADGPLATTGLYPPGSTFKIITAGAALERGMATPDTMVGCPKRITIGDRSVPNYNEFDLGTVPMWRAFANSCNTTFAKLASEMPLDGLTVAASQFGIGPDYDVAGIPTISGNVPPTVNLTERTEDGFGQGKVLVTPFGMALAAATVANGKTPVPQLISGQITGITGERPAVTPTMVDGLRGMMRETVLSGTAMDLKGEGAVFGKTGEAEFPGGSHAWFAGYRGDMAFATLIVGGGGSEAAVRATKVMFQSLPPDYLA
Protocol: To analyze the binding of PBP-lipo with β-lactams or BLIs, purified PBP-lipo (4 µg) was incubated with β-lactams or BLIs at a 1:10 molar ratio in a buffer containing 10 mM sodium phosphate (pH 7.4) and 150 mM NaCl. The incubation was carried out for 2 h at room temperature. After the initial incubation, 1 µM Bocillin FL was added to the reaction mixture. The incubation was continued for an additional 3–4 h at 37°C. After incubation, the samples were boiled to denature the proteins. The samples were then subjected to SDS-PAGE. The PBP-lipo:Bocillin complexes were visualized by fluorescence analysis at a wavelength of 488 nm using an Azure 300 gel imaging system. The intensity of the PBP-lipo:Bocillin complex bands was analyzed using GelAnalyzer software. The intensity of the band for PBP-lipo alone (without β-lactams) was set to 1 as the highest intensity. The intensity of each band for PBP-lipo incubated with β-lactams was then normalized by dividing by the intensity of the band for PBP-lipo alone.

PBP-lipo [2] = molecular target: T1, PBP-lipo; assay: Steady-state kinetics with nitrocefin (Ki,app); assay type: biochemical; conditions: for Ki: nitrocefin at 5 × Km, read-out: Ki,app PBP-lipo (converted); for Ratio of fCss,avg to Ki,app, PBP-lipo: in parentheses in Table 3
Protocol: (§3) Steady-state kinetic studies were conducted using purified LDTs and PBPs (LDT1-5, PBP B, PBP-lipo, and DDC) as previously described ([20]). The assays were performed using a BioTek Synergy2 multimode reader in conjunction with Gen5 analysis software. Increasing concentrations of NCF (Δε482 = 17,400 M^⁻¹ cm^⁻¹) were used, while fixed concentrations of the LDTs and PBPs were monitored for changes in absorbance at 482 nm over a time period of 0 to 10 min. To determine reaction velocities, a 0.25 cm path length was employed. The steady-state kinetic parameters (Vmax, kcat, and Km) were obtained by fitting the data to the Henri-Michaelis-Menten equation using a nonlinear least-squares fit in Origin 8.1 software (OriginLab, Northampton, MA). The reaction rate (v) at a given substrate concentration ([S]) was calculated according to the following equations: […]
To determine the apparent inhibition constants (Ki,app) for β-lactams and BLIs, the following experimental condition was employed: NCF as a substrate at a concentration of 5 × Km, LDT/ PBP enzymes with fixed concentration, and β-lactams and BLIs with various concentrations. Changes in absorbance at 482 nm were measured over a period of 0–30 min for each concentration of β-lactams and BLIs. Data were linearized using a Dixon plot, plotting the inverse changes in absorbance (1/ΔA) against the concentrations of β-lactams and BLIs. The observed Ki,app was determined directly from the Dixon plot, and these values were corrected for substrate concentration and affinity for the LDT using the following equation:
(§4) Ki,app=observed Ki,app/1+[NCF]/Km NCF

PBP B = PBP B (Mycobacterium abscessus, UniProt B1MP31); assay: Steady-state kinetics with nitrocefin (Ki,app); assay type: biochemical; conditions: for Ratio of fCss,avg to Ki,app, PBP B: in parentheses in Table 3;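 on Ratio of fCss,avg to Ki,app, PBP B: Parenthesised value is the fCss,avg to Ki,app ratio where above 1 means target likely hit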
Sequence of PBP B (B1MP31 entry or part of it): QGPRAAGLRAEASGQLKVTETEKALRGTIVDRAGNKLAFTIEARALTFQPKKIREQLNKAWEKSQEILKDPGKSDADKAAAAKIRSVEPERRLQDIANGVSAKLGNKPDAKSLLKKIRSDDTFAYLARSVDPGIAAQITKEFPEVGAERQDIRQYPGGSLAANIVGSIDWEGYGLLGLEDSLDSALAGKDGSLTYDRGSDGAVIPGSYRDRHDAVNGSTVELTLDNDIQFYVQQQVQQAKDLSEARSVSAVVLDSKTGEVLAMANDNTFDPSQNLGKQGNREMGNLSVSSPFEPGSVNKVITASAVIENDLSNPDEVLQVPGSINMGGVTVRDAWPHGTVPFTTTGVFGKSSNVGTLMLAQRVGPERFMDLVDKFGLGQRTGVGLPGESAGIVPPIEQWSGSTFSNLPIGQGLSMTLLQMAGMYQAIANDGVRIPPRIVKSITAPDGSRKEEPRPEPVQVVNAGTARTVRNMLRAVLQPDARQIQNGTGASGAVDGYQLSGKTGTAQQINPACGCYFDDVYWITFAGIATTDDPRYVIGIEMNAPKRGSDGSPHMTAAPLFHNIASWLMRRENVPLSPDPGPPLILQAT
Protocol: as §3, with “Increasing concentrations of NCF (Δε482 = 17,400 M^⁻¹ cm^⁻¹) were used, while fixed concentrations of the LDTs and PBPs were monitored for changes in absorbance at 482 nm over a time period of 0 to 10 min.” left out
(§5) Changes in absorbance at 482 nm were measured over a period of 0–30 min for each concentration of β-lactams and BLIs. Data were linearized using a Dixon plot, plotting the inverse changes in absorbance (1/ΔA) against the concentrations of β-lactams and BLIs. The observed Ki,app was determined directly from the Dixon plot, and these values were corrected for substrate concentration and affinity for the LDT using the following equation:
as §4

LDT2 = LDT2 (Mycobacterium abscessus, UniProt B1MMQ4); assay: Mass spectrometry of covalent adduct formation; assay type: binding; conditions: protein:drug 1:20, 2 h; mass accuracy ±5 Da; (−) = no change
Sequence of LDT2 (B1MMQ4 entry or part of it): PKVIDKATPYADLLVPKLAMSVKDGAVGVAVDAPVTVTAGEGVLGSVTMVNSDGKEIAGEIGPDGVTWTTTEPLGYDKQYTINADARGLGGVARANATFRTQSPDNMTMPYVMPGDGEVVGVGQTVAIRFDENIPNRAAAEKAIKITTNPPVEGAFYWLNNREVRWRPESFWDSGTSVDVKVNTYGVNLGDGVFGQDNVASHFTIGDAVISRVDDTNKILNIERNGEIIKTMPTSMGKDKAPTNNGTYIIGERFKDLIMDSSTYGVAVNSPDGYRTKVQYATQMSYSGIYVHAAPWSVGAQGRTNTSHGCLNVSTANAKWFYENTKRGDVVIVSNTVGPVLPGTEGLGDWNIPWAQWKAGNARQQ
Protocol: as §1, §2

DDC = DDC (Mycobacteroides abscessus, UniProt B1MDJ1); assay: Steady-state kinetics with nitrocefin (Ki,app); assay type: biochemical; conditions: in parentheses in Table 3;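 further: Parenthesised value is the fCss,avg to Ki,app ratio where above 1 means target likely hit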
Sequence of DDC (B1MDJ1 entry or part of it): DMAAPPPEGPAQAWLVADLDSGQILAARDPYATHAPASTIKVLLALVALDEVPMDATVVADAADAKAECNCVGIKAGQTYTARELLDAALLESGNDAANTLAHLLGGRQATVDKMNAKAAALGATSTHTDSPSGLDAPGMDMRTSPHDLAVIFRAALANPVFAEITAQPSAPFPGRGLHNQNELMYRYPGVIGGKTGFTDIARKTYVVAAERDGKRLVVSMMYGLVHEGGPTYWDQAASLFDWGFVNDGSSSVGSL
Protocol: as §3, with “Increasing concentrations of NCF (Δε482 = 17,400 M^⁻¹ cm^⁻¹) were used, while fixed concentrations of the LDTs and PBPs were monitored for changes in absorbance at 482 nm over a time period of 0 to 10 min.” left out
as §5, §4

[3] = nitrocefin at 5 × Km, read-out: Ki,app PBP B (converted)
[4] = read-out: Ki,app PBP B (converted)

Sequence of LDT3 (B1MHQ4 entry or part of it): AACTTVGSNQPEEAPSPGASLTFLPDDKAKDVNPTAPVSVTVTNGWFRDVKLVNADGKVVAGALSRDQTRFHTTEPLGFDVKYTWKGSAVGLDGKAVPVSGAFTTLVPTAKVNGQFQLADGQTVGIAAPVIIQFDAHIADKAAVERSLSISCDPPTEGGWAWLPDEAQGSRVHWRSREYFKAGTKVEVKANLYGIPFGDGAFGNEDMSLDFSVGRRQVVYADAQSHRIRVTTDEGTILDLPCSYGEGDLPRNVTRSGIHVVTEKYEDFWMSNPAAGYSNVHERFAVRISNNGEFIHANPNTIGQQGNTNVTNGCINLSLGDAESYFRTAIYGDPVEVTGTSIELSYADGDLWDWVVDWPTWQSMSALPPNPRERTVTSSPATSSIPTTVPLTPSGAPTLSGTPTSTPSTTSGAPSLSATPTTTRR

Compound: CC1(C)S[C@@H]2[C@H](NC(=O)[C@H](N)c3ccc(O)cc3)C(=O)N2[C@H]1C(=O)O [Amoxicillin, amoxicillin]
- Observed MW (+ change in mw), LDT3 (44,795) (LDT3): 44,794 (−) Da
- Binding to PBP-lipo (Bocillin-FL competition) (PBP-lipo [1]): demonstrated binding to PBP-lipo
- Ki (PBP-lipo [2]): 0.274 µM
- Ki (PBP B): 7.39 µM

Compound: NC(=O)[C@@H]1CC[C@@H]2CN1C(=O)N2OS(=O)(=O)O [Avibactam, avibactam]
- Observed MW (+ change in mw), LDT2 (39,216) (LDT2): 39,482 (+266) Da
- Observed MW (+ change in mw), LDT3 (44,795) (LDT3): 44,794 (−) Da
- Binding to PBP-lipo (Bocillin-FL competition) (PBP-lipo [1]): demonstrated binding to PBP-lipo
- Ratio of fCss,avg to Ki,app, PBP-lipo (PBP-lipo [2]): 1
- Ki (PBP-lipo [2]): 18.9 µM
- Ratio of fCss,avg to Ki,app, DDC (DDC): 0.1
- Ratio of fCss,avg to Ki,app, PBP B (PBP B): 0.6
- Ki (PBP B; [3]): 33.9 µM

Compound: CO/N=C(\C(=O)N[C@@H]1C(=O)N2C(C(=O)O)=C(COC(N)=O)CS[C@H]12)c1ccco1 [Cefuroxime, cefuroxime]
- Observed MW (+ change in mw), LDT2 (39,216) (LDT2): 39,597 (+381) Da
- Observed MW (+ change in mw), LDT3 (44,795) (LDT3): 44,794 (−) Da
- Binding to PBP-lipo (Bocillin-FL competition) (PBP-lipo [1]): demonstrated binding to PBP-lipo
- Ratio of fCss,avg to Ki,app, PBP-lipo (PBP-lipo [2]): 0.5
- Ki (PBP-lipo [2]): 51.8 µM
- Ratio of fCss,avg to Ki,app, DDC (DDC): 0.05 (240)
- Ratio of fCss,avg to Ki,app, PBP B (PBP B): 3 (4)
- Ki (PBP B; [4]): 7.07 µM

Compound: CC1=C[C@@H]2CN(C(=O)N2OS(=O)(=O)O)[C@@H]1C(N)=O [Durlobactam, durlobactam]
- Observed MW (+ change in mw), LDT2 (39,216) (LDT2): 39,492 (+278) Da
- Observed MW (+ change in mw), LDT3 (44,795) (LDT3): 44,794 (−) Da
- Binding to PBP-lipo (Bocillin-FL competition) (PBP-lipo [1]): demonstrated binding to PBP-lipo
- Ratio of fCss,avg to Ki,app, PBP-lipo (PBP-lipo [2]): 133
- Ki (PBP-lipo [2]): 0.361 µM
- Ratio of fCss,avg to Ki,app, DDC (DDC): 1.6
- Ratio of fCss,avg to Ki,app, PBP B (PBP B): 1
- Ki (PBP B; [3]): 57.7 µM

Compound: C[C@@H](O)[C@H]1C(=O)N2C(C(=O)O)=C(SCCN=CN)C[C@H]12 [Imipenem, imipenem]
- Observed MW (+ change in mw), LDT2 (39,216) (LDT2): 39,515 (+299) Da
- Observed MW (+ change in mw), LDT3 (44,795) (LDT3): 44,794 (−) Da
- Binding to PBP-lipo (Bocillin-FL competition) (PBP-lipo [1]): demonstrated binding to PBP-lipo
- Ratio of fCss,avg to Ki,app, PBP-lipo (PBP-lipo [2]): 22
- Ki (PBP-lipo [2]): 2 µM
- Ratio of fCss,avg to Ki,app, DDC (DDC): 1.3 (9)
- Ratio of fCss,avg to Ki,app, PBP B (PBP B): 0.4 (27)
- Ki (PBP B; [4]): 1.34 µM

Compound: C[C@@H](O)[C@H]1C(=O)N2C(C(=O)O)=C(S[C@H]3CC[S@@+]([O-])C3)S[C@H]12 [Sulopenem, sulopenem]
- Observed MW (+ change in mw), LDT2 (39,216) (LDT2): 39,298 (+86) Da
- Observed MW (+ change in mw), LDT3 (44,795) (LDT3): 45,143 (+349) Da
- Binding to PBP-lipo (Bocillin-FL competition) (PBP-lipo [1]): demonstrated binding to PBP-lipo
- Ratio of fCss,avg to Ki,app, PBP-lipo (PBP-lipo [2]): 25
- Ki (PBP-lipo [2]): 0.229 µM
- Ratio of fCss,avg to Ki,app, DDC (DDC): 0.1
- Ratio of fCss,avg to Ki,app, PBP B (PBP B): 0.7
- Ki (PBP B; [3]): 8.3 µM

Compound: C[C@@H](O)[C@H]1C(=O)N2C(C(=O)O)=C(SC3CN(C4=NCCS4)C3)[C@H](C)[C@H]12 [Tebipenem, tebipenem]
- Observed MW (+ change in mw), LDT2 (39,216) (LDT2): 39,602 (+386) Da
- Observed MW (+ change in mw), LDT3 (44,795) (LDT3): 44,794 (−) Da
- Ratio of fCss,avg to Ki,app, PBP-lipo (PBP-lipo [2]): 0.05
- Ki (PBP-lipo [2]): 88.7 µM
- Ratio of fCss,avg to Ki,app, DDC (DDC): 0.01
- Ratio of fCss,avg to Ki,app, PBP B (PBP B): 243
- Ki (PBP B; [3]): 0.0183 µM
